Here are results for 20 molecules from patent US20250011311A1, “AMIDO HETEROAROMATIC COMPOUNDS” (AstraZeneca AB, priority 2022, published 2025).

Molecules are shown by their SMILES.

Data set [1] deals with over expressed HSD17β13 in HEK293S cells (Homo sapiens (Human), UniProt Q7Z5P4). The data set can be described thus: In Vitro 17bHSD13 Cell Assay. Type of data set: cell-based. The settings on record: HEK293S cells over expressing HSD17β13; estradiol to estrone conversion, 18 h, LC-MS/MS; read-out: 17bHSD1713 Cell assay IC50. In short, it runs like this: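 HEK293S cells overexpressing HSD17β13 convert estradiol to estrone; product read by LC-MS/MS (APCI, positive MRM) as AUC ratio estrone/(estrone+estradiol). Effect normalised between DMSO and maximal inhibition by a known inhibitor control; IC50 from curve fit.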
Sequence of over expressed HSD17β13 in HEK293S cells (Q7Z5P4 20-300): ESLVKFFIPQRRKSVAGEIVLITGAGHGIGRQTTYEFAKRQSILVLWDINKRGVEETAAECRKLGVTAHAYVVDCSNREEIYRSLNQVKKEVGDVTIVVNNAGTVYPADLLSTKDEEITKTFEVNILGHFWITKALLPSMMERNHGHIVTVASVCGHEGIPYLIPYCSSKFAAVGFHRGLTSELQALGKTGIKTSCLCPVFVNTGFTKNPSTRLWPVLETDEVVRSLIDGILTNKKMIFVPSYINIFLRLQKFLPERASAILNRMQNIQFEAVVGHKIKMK

Data set [2] addresses CYP2C9 (Homo sapiens (Human), UniProt P11712). The data set can be described thus: Assay B: Cytochrome P450 Inhibition 2C9.
Data set [3] relates to human hepatocytes. The data set can be described thus: Assay A: Metabolic Stability in Human Hepatocytes. The note with it: cryopreserved human hepatocytes, 10^6 viable cells/mL, 1 μM compound, 37° C. Type of data set: in vitro ADME. In short, it runs like this: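 Cryopreserved hepatocytes (10^6 viable cells/mL) at 37° C with 1 μM test compound, sampled 0.5–120 min and quenched in MeCN. Parent measured by LC-MS/MS; CLint (μL/min/10^6 cells) from the slope of ln(parent concentration) vs time.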

For data set [4], the target named is over expressed HSD17β9 in HEK293S cells (Homo sapiens (Human), UniProt Q92781). The data set can be described thus: In Vitro 17bHSD9 Cell Assay. The note with it: HEK293S cells over expressing HSD17β9; retinol to retinal conversion, 18 h, LC-MS/MS; read-out: 17bHSD9 Cell assay IC50. Type of data set: cell-based. The gist of the method: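 HEK293S cells overexpressing HSD17β9 were plated at 10K cells/well in DMEM + 10% FBS and cultured 18 h. Retinol-to-retinal conversion in media was quantified by LC-MS/MS (MRM) as retinal/(retinal + retinol). IC50 was fitted after normalisation to DMSO and full inhibition by a reference inhibitor.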
Sequence of over expressed HSD17β9 in HEK293S cells (Q92781 whole entry): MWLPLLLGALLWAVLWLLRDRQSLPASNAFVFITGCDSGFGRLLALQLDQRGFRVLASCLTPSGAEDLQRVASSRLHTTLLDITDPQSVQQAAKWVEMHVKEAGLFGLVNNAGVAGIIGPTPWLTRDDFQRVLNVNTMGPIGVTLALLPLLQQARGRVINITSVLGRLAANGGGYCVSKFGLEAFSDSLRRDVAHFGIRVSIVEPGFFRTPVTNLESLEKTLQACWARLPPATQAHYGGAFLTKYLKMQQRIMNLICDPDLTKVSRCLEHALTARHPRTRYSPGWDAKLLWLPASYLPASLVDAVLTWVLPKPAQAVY

Sequence of CYP2C9 (P11712 whole entry): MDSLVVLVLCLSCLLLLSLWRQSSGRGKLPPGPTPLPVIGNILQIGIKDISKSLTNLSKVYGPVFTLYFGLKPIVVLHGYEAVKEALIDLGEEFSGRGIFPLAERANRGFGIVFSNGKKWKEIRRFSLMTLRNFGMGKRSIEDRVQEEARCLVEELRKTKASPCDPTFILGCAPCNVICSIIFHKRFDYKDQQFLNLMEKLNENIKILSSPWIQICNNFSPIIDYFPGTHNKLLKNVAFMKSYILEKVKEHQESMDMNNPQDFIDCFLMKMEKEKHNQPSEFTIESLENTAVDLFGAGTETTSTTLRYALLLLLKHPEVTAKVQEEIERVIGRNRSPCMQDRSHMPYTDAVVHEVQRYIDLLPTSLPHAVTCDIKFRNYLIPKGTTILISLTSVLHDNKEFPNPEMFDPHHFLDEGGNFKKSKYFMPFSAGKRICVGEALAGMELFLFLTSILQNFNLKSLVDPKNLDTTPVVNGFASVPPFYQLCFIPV

Consider `N#Cc1ccc2c(c1)CN(C(=O)c1noc(-c3cc(F)c(F)c(O)c3F)n1)CC2` [Example 86, 2-(5-(2,4,5-Trifluoro-3-hydroxyphenyl)-1,2,4-oxadiazole-3-carbonyl)-1,2,3,4-tetrahydroisoquinoline-7-carbonitrile], for which the values for the concentration for half-maximal inhibition (IC50) in data set [1], in data set [2] and in data set [4] were 0.54 µM, 4 µM and 21.1 µM, respectively. The “Assay A: Human Heps Met Clint GMean CLint (μl/min/1E6)” value in data set [3] came out at 12.3 μl/min/1E6.

Regarding `O=C(c1noc(-c2ccc(F)c(O)c2)n1)N1CC[C@H](c2ccccc2)C1` [Example 11, (R)-(5-(4-Fluoro-3-hydroxyphenyl)-1,2,4-oxadiazol-3-yl)(3-phenylpyrrolidin-1-yl)methanone], the results for the IC50 in data set [1], in data set [2] and in data set [4] were 0.8 µM, 12.8 µM and more than 50 µM, respectively. Moreover, the “Assay A: Human Heps Met Clint GMean CLint (μl/min/1E6)” value in data set [3] was more than 300 μl/min/1E6.

Take `C[C@@H]1CN(C(=O)c2noc(-c3cc(F)c(F)c(O)c3F)n2)C[C@H](C)N1` [Example 119, ((3R,5S)-3,5-Dimethylpiperazin-1-yl)(5-(2,4,5-trifluoro-3-hydroxyphenyl)-1,2,4-oxadiazol-3-yl)methanone]: the IC50 in data set [1] was 2.75 µM; in data set [2], 12.3 µM; in data set [4], more than 50 µM. Further, the “Assay A: Human Heps Met Clint GMean CLint (μl/min/1E6)” value in data set [3] was 1.0 μl/min/1E6.

As to `C[C@@H]1CN(C(=O)c2noc(-c3cc(F)c(F)c(O)c3F)c2C#N)C[C@H](C)O1` [Example 22, 3-((2R,6S)-2,6-Dimethylmorpholine-4-carbonyl)-5-(2,4,5-trifluoro-3-hydroxyphenyl)isoxazole-4-carbonitrile], the IC50 was 1.12 µM in data set [1], 1.2 µM in data set [2] and more than 50 µM in data set [4]. Also, in data set [3], the “Assay A: Human Heps Met Clint GMean CLint (μl/min/1E6)” value came out at 6.3 μl/min/1E6.

`C[C@@H]1CN(C(=O)c2noc(-c3c(F)c(O)c(F)c(F)c3I)n2)C[C@H](C)O1` [Example 108, ((2S,6R)-2,6-Dimethylmorpholino)(5-(2,4,5-trifluoro-3-hydroxy-6-iodophenyl)-1,2,4-oxadiazol-3-yl)methanone]: the IC50 in data set [1] was 0.49 µM; in data set [2] it was 7 µM; in data set [4] it was more than 50 µM. In addition, the “Assay A: Human Heps Met Clint GMean CLint (μl/min/1E6)” value in data set [3] was 8.8 μl/min/1E6.

In the case of `O=C(c1noc(-c2cc(F)c(F)c(O)c2F)n1)N1CCO[C@@H]2CCC[C@@H]21` [Example 113, ((4aS,7aR)-Hexahydrocyclopenta[b][1,4]oxazin-4(4aH)-yl)(5-(2,4,5-trifluoro-3-hydroxyphenyl)-1,2,4-oxadiazol-3-yl)methanone], the IC50 in data set [1] is 0.1 µM; in data set [2], 4.2 µM; in data set [4], more than 50 µM. In addition, the “Assay A: Human Heps Met Clint GMean CLint (μl/min/1E6)” value in data set [3] is on record as 7.3 μl/min/1E6.

Consider `O=C(c1noc(-c2cc(F)c(F)c(O)c2F)n1)N1CCOC2(CC2)C1` [Example 118, (4-Oxa-7-azaspiro[2.5]octan-7-yl)(5-(2,4,5-trifluoro-3-hydroxyphenyl)-1,2,4-oxadiazol-3-yl)methanone], for which the IC50 in data set [1] is 0.22 µM; in data set [2], 7.8 µM; in data set [4] it was more than 50 µM. Also, in data set [3], the “Assay A: Human Heps Met Clint GMean CLint (μl/min/1E6)” value was determined as 4.6 μl/min/1E6.

`N#Cc1cccc2c1CCN(C(=O)c1noc(-c3c(F)c(O)c(F)c(F)c3Br)n1)C2` [Example 30, 2-(5-(2-Bromo-3,4,6-trifluoro-5-hydroxyphenyl)-1,2,4-oxadiazole-3-carbonyl)-1,2,3,4-tetrahydroisoquinoline-5-carbonitrile]: the IC50 was determined as 2.52 µM in data set [1], 3.9 µM in data set [2] and 15.8 µM in data set [4]. Also, the “Assay A: Human Heps Met Clint GMean CLint (μl/min/1E6)” value in data set [3] worked out at 15.6 μl/min/1E6.

With `C[C@@H]1CN(C(=O)c2cc(-c3cc(F)c(F)c(O)c3F)on2)C[C@H](C)O1` [Example 89, ((2R,6S)-2,6-Dimethylmorpholino)(5-(2,4,5-trifluoro-3-hydroxyphenyl)isoxazol-3-yl)methanone], the IC50 is 0.07 µM in data set [1], 3.7 µM in data set [2] and more than 50 µM in data set [4]. The “Assay A: Human Heps Met Clint GMean CLint (μl/min/1E6)” value in data set [3] worked out at 14.6 μl/min/1E6.

For the molecule `O=C(c1noc(-c2cc(F)c(F)c(O)c2F)n1)N1CC[C@H](c2ccc(Cl)cc2)C1` [Example 95, (R)-(3-(4-Chlorophenyl)pyrrolidin-1-yl)(5-(2,4,5-trifluoro-3-hydroxyphenyl)-1,2,4-oxadiazol-3-yl)methanone], the results for the IC50 in data set [1], in data set [2] and in data set [4] were 0.21 µM, 1.1 µM and 17 µM, respectively. Also, the “Assay A: Human Heps Met Clint GMean CLint (μl/min/1E6)” value in data set [3] is listed as 12.9 μl/min/1E6.

On to `O=C(c1noc(-c2cc(F)c(F)c(O)c2F)n1)N1CC2CCC(C1)C2(F)F` [Example 43, (8,8-difluoro-3-azabicyclo[3.2.1]octan-3-yl)(5-(2,4,5-trifluoro-3-hydroxyphenyl)-1,2,4-oxadiazol-3-yl)methanone], for which the values for the IC50 in data set [1], in data set [2] and in data set [4] were 0.24 µM, 13.9 µM and 18.4 µM, respectively. Also, the “Assay A: Human Heps Met Clint GMean CLint (μl/min/1E6)” value in data set [3] amounted to 3.3 μl/min/1E6.

In the case of `O=C(c1ccc(-c2cc(F)c(F)c(O)c2F)s1)N1CC[C@H](c2ccccc2)C1` [Example 33, (R)-(3-Phenylpyrrolidin-1-yl)(5-(2,4,5-trifluoro-3-hydroxyphenyl)thiophen-2-yl)methanone], the IC50 in data set [1] is 1.21 µM; in data set [2] it was 0.2 µM; in data set [4] it was more than 50 µM. Moreover, the “Assay A: Human Heps Met Clint GMean CLint (μl/min/1E6)” value in data set [3] worked out at 124.3 μl/min/1E6.

On to `N#Cc1ccc2c(c1)CCN(C(=O)c1noc(-c3cc(F)c(F)c(O)c3F)n1)C2` [Example 31, 2-(5-(2,4,5-Trifluoro-3-hydroxyphenyl)-1,2,4-oxadiazole-3-carbonyl)-1,2,3,4-tetrahydroisoquinoline-6-carbonitrile], for which the IC50 worked out at 1.06 µM in data set [1], 5 µM in data set [2] and 30 µM in data set [4]. Also, the “Assay A: Human Heps Met Clint GMean CLint (μl/min/1E6)” value in data set [3] stood at 12.6 μl/min/1E6.

Turning to `COc1cccc(N2CCN(C(=O)c3noc(-c4cc(F)c(F)c(O)c4F)c3C#N)CC2)c1` [Example 16, 3-(4-(3-Methoxyphenyl)piperazine-1-carbonyl)-5-(2,4,5-trifluoro-3-hydroxyphenyl)isoxazole-4-carbonitrile], the IC50 is 4.56 µM in data set [1], 0.8 µM in data set [2] and more than 50 µM in data set [4]. The “Assay A: Human Heps Met Clint GMean CLint (μl/min/1E6)” value in data set [3] is 56.8 μl/min/1E6.

With `O=C(Nc1ccnn1C1CCCCC1)c1cc(-c2ccc(F)c(O)c2)on1` [Example 99, N-(1-Cyclohexyl-1H-pyrazol-5-yl)-5-(4-fluoro-3-hydroxyphenyl)isoxazole-3-carboxamide], the IC50 was 15.8 µM in data set [1], more than 30 µM in data set [2] and 38.9 µM in data set [4]. The “Assay A: Human Heps Met Clint GMean CLint (μl/min/1E6)” value in data set [3] is more than 300 μl/min/1E6.

For the molecule `O=C(c1noc(-c2cc(F)c(F)c(O)c2F)n1)N1CC(Oc2ccccc2)C1` [Example 2, (3-Phenoxyazetidin-1-yl)(5-(2,4,5-trifluoro-3-hydroxyphenyl)-1,2,4-oxadiazol-3-yl)methanone], the IC50 in data set [1] is 1.61 µM; in data set [2] it was 1.8 µM; in data set [4], more than 50 µM. Further, in data set [3], the “Assay A: Human Heps Met Clint GMean CLint (μl/min/1E6)” value is 14.7 μl/min/1E6.

Regarding `N#Cc1c(C(=O)N2Cc3ccc(F)cc3C2)noc1-c1cc(F)c(F)c(O)c1F` [Example 18, 3-(5-Fluoroisoindoline-2-carbonyl)-5-(2,4,5-trifluoro-3-hydroxyphenyl)isoxazole-4-carbonitrile], the IC50 was determined as 0.79 µM in data set [1], 0.4 µM in data set [2] and 6.2 µM in data set [4]. In data set [3], the “Assay A: Human Heps Met Clint GMean CLint (μl/min/1E6)” value turned out to be 17.2 μl/min/1E6.

`O=C(c1noc(-c2cc(F)c(F)c(O)c2F)n1)N1CCO[C@@H]2CCC[C@H]21` [Example 114, ((4aR,7aR)-Hexahydrocyclopenta[b][1,4]oxazin-4(4aH)-yl)(5-(2,4,5-trifluoro-3-hydroxyphenyl)-1,2,4-oxadiazol-3-yl)methanone]: the IC50 in data set [1] worked out at 0.12 µM; in data set [2], 7.2 µM; in data set [4], 15.8 µM. Besides, in data set [3], the “Assay A: Human Heps Met Clint GMean CLint (μl/min/1E6)” value was determined as 6.4 μl/min/1E6.

`O=C(c1noc(-c2cc(F)c(F)c(O)c2F)n1)N1CC(c2ccc(F)cc2)C1` [Example 74, (3-(4-Fluorophenyl)azetidin-1-yl)(5-(2,4,5-trifluoro-3-hydroxyphenyl)-1,2,4-oxadiazol-3-yl)methanone]: the IC50 in data set [1] is 3 µM; in data set [2], 1.8 µM; in data set [4], more than 50 µM. Further, the “Assay A: Human Heps Met Clint GMean CLint (μl/min/1E6)” value in data set [3] is 14.4 μl/min/1E6.

For `CC(C)[C@H]1CN(C(=O)c2noc(-c3cc(F)c(F)c(O)c3F)n2)C[C@@H](C)O1` (racemic) [Example 122, rac-((2R,6S)-2-isopropyl-6-methylmorpholino)(5-(2,4,5-trifluoro-3-hydroxyphenyl)-1,2,4-oxadiazol-3-yl)methanone], the IC50 in data set [1] came to 0.04 µM; in data set [2] it was 4.4 µM; in data set [4], 8.3 µM. The “Assay A: Human Heps Met Clint GMean CLint (μl/min/1E6)” value in data set [3] turned out to be 8.8 μl/min/1E6.

The term IC50 denotes the concentration at which inhibition is half-maximal.
